Columns and labels:
[1] = Photostability, percentage remaining undegraded under illumination or in the dark; conditions: for Photostability 4 hours: percentage remaining undegraded after 4 hours illumination; for Photostability 24 hours: percentage remaining undegraded after 24 hours illumination; for Photostability Dark (24 h): percentage remaining undegraded in the dark
Bovine cardiac myosin = Bovine cardiac myosin (Bos taurus (Bovine), UniProt Q9BE39); assay: Cardiac muscle myosin II actin-activated ATPase assay (NADH-coupled); format: biochemical; set-up: key to Ratio CMMII:NMII Ki/EC50: NMII-sel: no Ki value for cardiac myosin II could be determined; the compounds had no detectable inhibitory properties versus the cardiac myosin II; conditions: for Ki: 300 nM cardiac myosin, 10 μM actin, 25° C., read-out: CMMII KI; for Ratio CMMII:NMII Ki/EC50: cardiac myosin II Ki over nonmuscle myosin II EC50
From the text: (§1) The cardiac muscle myosin II actin-activated ATPase assay is a biochemical assay. Specifically, it is an NADH (nicotinamide adenine dinucleotide)-coupled ATPase assay that relies on NADH fluorescence as a readout. Cardiac myosin is a mechanochemical energy transducer that hydrolyzes ATP to generate force in the presence of its activator, F-actin. The resulting ADP is regenerated to ATP by pyruvate kinase (PK) that transforms one molecule of phosphoenolpyruvate (PEP) to pyruvate in parallel. Subsequently, pyruvate is reduced to lactate by lactate dehydrogenase (LDH) that, in turn, oxidizes one molecule of NADH to NAD. Therefore, the decrease in NADH concentration as a function of time equals the ATP hydrolysis rate. Bovine cardiac myosin is obtained from a commercial source, Cytoskeleton. PK, LDH, ATP, PEP, and NADH are obtained from Sigma. F-actin is prepared in house from Rabbit Muscle Acetone Powder. The assay is run at 25° C. in 384 well black-wall polystyrene microplates with a total volume of 20 μl per well. NADH fluorescence is monitored for 30 minutes with an EnVision Multimode Plate Reader. The slope of the fluorescence response, which is proportional to the reaction rate, is determined by simple linear regression. Final assay conditions are 300 nM cardiac myosin, 10 μM actin, 40 U/ml LDH, 200 U/ml PK, 220 μM NADH, 1 mM PEP, 1 mM ATP in a buffer containing 10 mM 3-(N-morpholino)propanesulfonic acid (pH=7.0), 2 mM MgCl2, 0.15 mM ethylene glycol-bis(p-aminoethyl ether)-N,N,N′,N′-tetraacetic acid, 0.1 mg/mL bovine serum albumin, 0.5% (V/V) dimethyl sulfoxide (DMSO) and 1 mM dithiothreitol. Prior to testing the inhibitory activity of the compounds, a two-fold dilution series starting at 10 mM compound concentration is prepared in DMSO. Subsequently, 100 nl is transferred to each well of the measuring plate containing a mixture of myosin, LDH and PK. The enzymatic reaction is started with the addition of a mixture containing ATP, PEP, NADH and actin. The highest final compound concentration is 50 uM. 20 μM para-aminoblebbistatin in 0.5% DMSO serves as the positive control and 0.5% DMSO alone is the negative control. Reaction rates are determined by using the fluorescence responses of a dilution series of NADH included in all plates and plotted as a function of inhibitor concentration. All measurements are carried out in triplicate. Inhibitory constants are determined by fitting the 16 point dose-response data to a quadratic equation corresponding to a simple one-to-one binding model.

Rabbit skeletal myosin = assay: Skeletal muscle myosin II actin-activated ATPase assay; format: biochemical; conditions: 20 nM skeletal muscle myosin II; read-out: SKMMII KI
From the text: as §1
The skeletal muscle myosin II actin-activated ATPase assay is performed the same as for cardiac muscle myosin II with the following exceptions: Rabbit skeletal myosin is obtained from Cytoskeleton and the final assay conditions contain 20 nM skeletal muscle myosin II.

Sequence of Bovine cardiac myosin (Q9BE39 whole entry): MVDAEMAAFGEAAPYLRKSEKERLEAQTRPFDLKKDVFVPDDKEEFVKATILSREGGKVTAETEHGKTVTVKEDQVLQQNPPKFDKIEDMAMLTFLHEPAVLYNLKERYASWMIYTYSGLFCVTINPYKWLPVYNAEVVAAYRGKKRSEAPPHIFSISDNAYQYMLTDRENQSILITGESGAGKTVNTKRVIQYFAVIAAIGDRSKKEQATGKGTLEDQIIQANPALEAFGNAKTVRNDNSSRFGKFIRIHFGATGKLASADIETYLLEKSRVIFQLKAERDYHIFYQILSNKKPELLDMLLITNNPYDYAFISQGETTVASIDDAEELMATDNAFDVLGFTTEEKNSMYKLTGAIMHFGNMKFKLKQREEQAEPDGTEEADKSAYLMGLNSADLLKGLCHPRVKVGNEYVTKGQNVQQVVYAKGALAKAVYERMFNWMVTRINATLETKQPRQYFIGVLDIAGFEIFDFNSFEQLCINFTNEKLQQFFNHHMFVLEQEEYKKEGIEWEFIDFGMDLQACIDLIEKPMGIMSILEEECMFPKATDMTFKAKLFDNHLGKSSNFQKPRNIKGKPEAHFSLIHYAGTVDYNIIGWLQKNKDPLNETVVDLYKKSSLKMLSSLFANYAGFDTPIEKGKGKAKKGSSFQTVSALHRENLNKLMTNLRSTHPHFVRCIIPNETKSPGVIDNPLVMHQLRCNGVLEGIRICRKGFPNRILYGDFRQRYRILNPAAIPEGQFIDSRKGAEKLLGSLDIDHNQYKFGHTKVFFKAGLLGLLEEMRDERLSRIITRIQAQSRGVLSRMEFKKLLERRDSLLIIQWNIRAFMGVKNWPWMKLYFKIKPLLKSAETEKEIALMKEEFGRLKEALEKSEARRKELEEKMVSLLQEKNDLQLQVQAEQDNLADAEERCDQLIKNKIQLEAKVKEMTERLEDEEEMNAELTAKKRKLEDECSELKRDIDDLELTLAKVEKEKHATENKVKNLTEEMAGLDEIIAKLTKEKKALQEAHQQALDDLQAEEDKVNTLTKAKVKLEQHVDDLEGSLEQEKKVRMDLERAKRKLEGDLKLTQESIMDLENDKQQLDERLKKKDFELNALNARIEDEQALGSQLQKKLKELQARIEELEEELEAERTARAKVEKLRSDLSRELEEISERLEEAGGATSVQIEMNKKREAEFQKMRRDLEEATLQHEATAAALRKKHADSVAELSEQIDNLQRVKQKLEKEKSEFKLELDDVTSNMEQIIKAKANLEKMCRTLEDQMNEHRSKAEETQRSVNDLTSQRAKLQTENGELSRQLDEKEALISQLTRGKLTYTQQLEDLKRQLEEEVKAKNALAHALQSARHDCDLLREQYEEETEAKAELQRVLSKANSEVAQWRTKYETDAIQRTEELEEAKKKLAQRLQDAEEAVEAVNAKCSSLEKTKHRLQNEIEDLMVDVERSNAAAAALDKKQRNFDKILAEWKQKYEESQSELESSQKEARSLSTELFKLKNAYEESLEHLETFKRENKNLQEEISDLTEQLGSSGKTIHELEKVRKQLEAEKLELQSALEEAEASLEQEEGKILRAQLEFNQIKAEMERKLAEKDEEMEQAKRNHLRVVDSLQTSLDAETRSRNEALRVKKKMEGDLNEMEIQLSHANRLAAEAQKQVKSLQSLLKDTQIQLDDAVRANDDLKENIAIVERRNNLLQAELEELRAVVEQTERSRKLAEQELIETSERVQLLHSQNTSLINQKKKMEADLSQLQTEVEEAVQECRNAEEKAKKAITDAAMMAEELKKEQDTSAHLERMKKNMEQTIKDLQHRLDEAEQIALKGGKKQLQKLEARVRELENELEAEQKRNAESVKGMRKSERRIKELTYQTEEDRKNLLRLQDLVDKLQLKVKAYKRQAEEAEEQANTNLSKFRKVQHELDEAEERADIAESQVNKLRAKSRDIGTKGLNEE
Sequence of Bovine cardiac myosin (P85100 whole entry partner): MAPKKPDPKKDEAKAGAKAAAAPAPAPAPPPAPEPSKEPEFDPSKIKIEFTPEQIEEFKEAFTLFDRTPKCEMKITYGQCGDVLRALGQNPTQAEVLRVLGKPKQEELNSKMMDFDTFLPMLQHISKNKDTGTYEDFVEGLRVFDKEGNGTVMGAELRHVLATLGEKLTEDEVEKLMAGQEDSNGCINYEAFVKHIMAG
Sequence of Bovine cardiac myosin (Q3SZE5 whole entry partner): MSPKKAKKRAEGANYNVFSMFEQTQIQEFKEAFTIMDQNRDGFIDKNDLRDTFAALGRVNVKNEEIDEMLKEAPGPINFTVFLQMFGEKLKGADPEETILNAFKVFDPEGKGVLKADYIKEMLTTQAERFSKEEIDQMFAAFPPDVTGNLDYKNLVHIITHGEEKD

SMILES	Photostability 4 hours [1] [%]	Photostability 24 hours [1] [%]	Photostability Dark (24 h) [1] [%]	Ki (Bovine cardiac myosin) [µM]	Ratio CMMII:NMII Ki/EC50 (Bovine cardiac myosin)	Ki (Rabbit skeletal myosin) [µM]
CCc1cc2c(s1)N=C1N(c3ccc(OC)cc3)CC[C@@]1(O)C2=O [BPN-0026881]	70.9	1.8	>99	11	6.1	0.8
Cc1ccc2c(c1)C(=O)[C@]1(O)CCN(c3ccc4ccncc4c3)C1=N2 [BPN-0027042]	92.7	13.8	>99		NMII-sel	10
N#Cc1ccc(N2CC[C@@]3(O)C(=O)c4c(sc5c4CCCC5)N=C23)cc1 [BPN-0027236]	>99	84.9	>99		NMII-sel	5
Cc1nc2cc(N3CC[C@@]4(O)C(=O)c5cc(C)c(C)cc5N=C34)ccc2s1 [BPN-0027491]	54.0	6.7	97.1	24	10.4	0.68
Cc1ccc2c(c1)C(=O)[C@]1(O)CCN(c3ccc4nsnc4c3)C1=N2 [BPN-0027394]	92.2	57.2	98.7	14	3.4	1.1
Cc1cc2c(cc1F)C(=O)[C@]1(O)CCN(c3ccccc3)C1=N2 [BPN-0026669]	87.8	11.2	>99	25	4.7	1.2
Cn1ncc2c1N=C1N(c3ccccc3)CC[C@@]1(O)C2=O [BPN-0027159]	89.9	22.5	>99		NMII-sel	330
Cc1cc2c(s1)N=C1N(c3ccc4ccoc4c3)CC[C@@]1(O)C2=O [BPN-0026639]	89.8	49.5	>99	14	4.2	1.1
Cc1ccc2c(c1)C(=O)[C@]1(O)CCN(c3ccc(C)c(Cl)c3)C1=N2 [BPN-0025254]	92.5	39.4	>99		NMII-sel	7.7
Cc1cc2c(cc1C)C(=O)[C@]1(O)CCN(c3ccc4nnccc4c3)C1=N2 [BPN-0027241]	91.6	87.0	97.4	100	7.7	7.2
Cc1ccc(N2CC[C@@]3(O)C(=O)c4cc(F)c(C)cc4N=C23)cc1 [BPN-0026579]	77.3	8.5	93.7	5	5.0	0.37
CCc1cc2c(s1)N=C1N(c3ccc(C)cc3)CC[C@@]1(O)C2=O [BPN-0026774]	86.7	18.1	>99	8.9	3.4	1.1
Cc1sc2c(c1C)C(=O)[C@]1(O)CCN(c3ccc(C#N)c(Cl)c3)C1=N2 [BPN-0027238]	>99	>99	>99		NMII-sel	3.7
Cc1cc2c(cc1C(F)(F)F)N=C1N(c3ccc(C#N)cc3)CC[C@@]1(O)C2=O [BPN-0027071]	>99	95.3	>99		NMII-sel	20
COc1ccc(N2CC[C@@]3(O)C(=O)c4cc(C(F)(F)F)ccc4N=C23)cc1 [BPN-0026393]	97.9	75.0	>99	11	3.2	1.7
COc1ccc(N2CC[C@@]3(O)C(=O)c4cc(C)c(C(F)(F)F)cc4N=C23)cc1 [BPN-0026849]	98.5	91.8	>99	16	16.0	0.77
COc1ccc(N2CC[C@@]3(O)C(=O)c4cc(F)c(C)cc4N=C23)cc1 [BPN-0026605]	69.6	2.3	94.2	15	15.0	0.29
Cc1cc2c(cc1F)C(=O)[C@]1(O)CCN(c3cccs3)C1=N2 [BPN-0026748]	88.2	22.4	>99	14	4.7	2.6
Cc1cc2c(s1)C(=O)[C@]1(O)CCN(c3ccc4ncccc4c3)C1=N2 [BPN-0027181]	>99	99.0	>99	91	33.7	3.1
Cc1cc2c(s1)C(=O)[C@]1(O)CCN(c3cccc(Br)c3)C1=N2 [BPN-0027074]	95.8	93.4	94.5	77	3.7	16
Cc1ccc2c(c1)C(=O)[C@@]1(O)C(=N2)N(c2ccccc2)CC1(C)C [BPN-0026282]	64.0	7.0	>99		NMII-sel	
Cc1cc2c(cc1F)C(=O)[C@]1(O)CCN(c3ccc(C)c(Cl)c3)C1=N2 [BPN-0026606]	85.9	4.1	95.5		NMII-sel	
O=C1c2cc(C(F)(F)F)ccc2N=C2N(c3ccc4ncsc4c3)CC[C@@]12O [BPN-0027219]	46.2	3.8	98.3		NMII-sel	
Cc1cccc(N2CC[C@@]3(O)C(=O)c4cc(C)c(C(F)(F)F)cc4N=C23)c1 [BPN-0026847]	99.0	91.8	>99		NMII-sel	
Cc1ccc(N2CC[C@@]3(O)C(=O)c4cc(Cl)ccc4N=C23)cc1 [BPN-0026609]				5.5	3.7	0.43
Cc1ncc(N2CC[C@@]3(O)C(=O)c4cc(C(F)(F)F)ccc4N=C23)s1 [BPN-0026404]				23	7.0	3.6
Cc1ccc(N2CC[C@@]3(O)C(=O)c4cc(C)c(C(F)(F)F)cc4N=C23)cc1Cl [BPN-0026786]	87.8	66.6	96.0		NMII-sel	
COc1cc(N2CC[C@@]3(O)C(=O)c4cc(C)ccc4N=C23)ccn1 [BPN-0025919]				18	4.6	1.8
Cc1sc2c(c1C)C(=O)[C@]1(O)CCN(c3cccc(Br)c3)C1=N2 [BPN-0026853]	91.2	88.2	90.2		NMII-sel	
O=C1c2c(sc3c2CCCC3)N=C2N(c3ccc4ncccc4c3)CC[C@@]12O [BPN-0027240]	94.1	74.6	98.0		NMII-sel	
